The target in series [1] is Mouse P-gp (Mus musculus, UniProt P21447). The series is described as follows: P-gp transport assay (mouse). It counts as in vitro ADME. The note with it: efflux ratio. An excerpt:
P-Gp Transport Assay (Human and Mouse) (P-Gp Assay)
In the assay of the P-gp efflux ratio ER as described hereinabove, a compound with ER<2.5 is regarded most suitable. In addition, compounds with low hERG channel binding are suitable as well.

The test system of series [2] is Aβ40 in brain of wild-type mice. The series is described as follows: Mouse acute in vivo model (inhibition of Aβ40 in brain of wild-type mice). The note with it: 4 h post dose. As to the method: Mouse Acute In Vivo Model (Inhibition of Aβ40 in Brain of Wild-Type Mice)
Single Dose Efficacy in Mice
The mouse single dose efficacy was measured in brain homogenate from C57Bl/6J wildtype mice after DEA extraction as described in H. Hilpert et al., J. Med. Chem. 2013, 56, 3980-3995 (dx.doi.org/10.1021/jm400225m).
(§1) Aβ 40 concentration was determined after solid phase extraction as described above and following a modified protocol from Perkin-Elmer with a commercially available antibody against the N-terminal part of rat Aβ (252Q6, Invitrogen cat. No. AMB0062) and an in-house C-terminal specific anti-Aβ40 antibody (BAP-24, Brockhaus M. et al., J. Neuroreport, 1998, 9:1481-1486) bound to acceptor beads (PerkinElmer, Cat. 6772002). 20 μl analyte per well (reconstituted extracts or standard) were loaded to a White Optiplate-96 (Perkin-Elmer, Cat#6005290). Then, a mixture of biotinylated BAP24 antibody (1:2000 diluted at approximately 1 nM final concentration) and antibody 252Q6 bound to AlphaLISA acceptor beads (Perkin-Elmer cat. No. 6772002 (1:100 diluted, 10 ug/mL final concentration) in 1× AlphaLISA buffer (Perkin-Elmer, AL000F) was added. After 1 hour room temperature incubation in the dark, 20 uL of a streptavidin coated donor beads dilution (40 μg/mL) were added and incubated for 30 minutes in the dark. Light emission at 615 nm was recorded using an EnVision AlphaScreen Reader (Perkin-Elmer). Levels of Aβ40 were calculated as percentage of the baseline samples from non-treated animals.
Aβ40 lowering was determined after oral administration in wild-type mice (C57Bl/6J mice, n=3-4) 4 h post dosing. Wild-type mice were used as they have a normal physiological level of APP expression and are thus expected to provide a better physiological model for Aβ-peptide production than APP-transgenic organisms. In vivo efficacy is a key factor for appropriate drug candidates, being more relevant than in vitro activities.

Series [3] deals with CSF Aβ40. The experiment in a line: Rat single dose study, inhibition of CSF Aβ40 in Wistar rats. It counts as in vivo. The settings on record: rat CSF Aβ40, 1 mg/kg, 4 h post dose. As to the method: Rat Single Dose PK Study (Inhibition of CSF Aβ40 in Wistar Rats)
The rat single dose PK study was described in H. Hilpert et al., J. Med. Chem. 2013, 56, 3980-3995 (dx.doi.org/10.1021/jm400225m) with slight modifications.
as §1, with “determined without” for “determined after”, “extraction” for “extraction as described above and”, “20 μL” for “20 uL”, “of Aβ 40” for “of Aβ40”

In series [4] the target is T1, BACE1 (Homo sapiens, UniProt P56817). The experiment in a line: BACE1 cell-free assay (BACE1 enzyme assay). It counts as biochemical. The text has this:
BACE1 Cell-Free Assay (BACE1 Enzyme Assay)
The determination of BACE1 activity can be either measured by using an enzymatic cell-free fluorescence assay (BACE1 cell free, table 2) or by a whole cell assay using HEK293 APP cells (Cellular Aβ-lowering, table 2). Both assays are suitable to determine BACE1 inhibition.

Series [5] has as its target T1, BACE1. The experiment in a line: BACE1 KD SPR assay. It counts as binding. The settings on record: Surface Plasmon Resonance. In general terms: SPR reads the build-up and loss of mass on a sensor chip optically.
Description: Surface Plasmon Resonance measurements were performed on a Biacore T200 instrument. Immobilization of BACE-1 was performed by standard amine coupling chemistry on a CMS sensor to achieve protein surface density of ˜8000 pg/mm2 (RU). Immobilization was performed using the acetate buffer (25 mM Na acetate, 150 mM NaCl, 0.01% P20, 3 mM EDTA, pH 4.5) as the running buffer at 25° C. In the first step the carboxyl groups of CMS sensor surface were transformed to the reactive succinimide esters by contacting the sensor surface 7 minutes with a solution of 0.2 M N-ethyl-N-dimethylaminopolycarboodiimide (EDC) and 0.05 M N-hydroxysuccinimide (NHS). After the activation, the sensor surface was contacted with (˜5 μgml-1 BACE1 protein solution in 10 mM sodium acetate coupling buffer (pH 4.5) to reach desired protein surface density. Finally, the excess of activated carboxylic groups on the surface was quenched with ethanolamine (1 M, pH 8.5, 7 min).
Binding assays were performed at 18° C. under the same buffer conditions as immobilization of the protein. Compounds were dissolved in DMSO as 10 mM stocks and diluted in running buffer to perform titration series (5 concentrations with dilution factor of 2) on a protein and reference (activated and deactivated CMS sensor surface) surfaces in parallel.
The nature of series [6]: Cynomolgus monkey single dose PK study. It counts as in vivo, Cynomolgus monkey (Macacaca fascicularis). An excerpt:
Cynomolgus Monkey (Macacaca fascicularis) Single Dose PK Study and Plasma Aβ40 Determination
Blood and plasma collection will always be performed in the treatment cage. The animal care keeper grabs either one arm or one leg through the bars. The hairs are shaved for better visibility of the vein. The blood vessel is squeezed, the vein is punctured by using a butterfly and blood is taken. Once enough blood has been withdrawn a cotton swab is placed over the injection site and the needle is gently removed. Bleeding is stopped by pressing a cotton swab on the wound. Plasma samples were taken between 5 min and 48 h.
Plasma Preparation Cynomolgus
Blood is transferred into a labeled EDTA-K2 Eppendorf tube and the sample is mixed by inverting the tubes several times. Blood is stored at −20° C.

T1 sequence (P56817 46-501): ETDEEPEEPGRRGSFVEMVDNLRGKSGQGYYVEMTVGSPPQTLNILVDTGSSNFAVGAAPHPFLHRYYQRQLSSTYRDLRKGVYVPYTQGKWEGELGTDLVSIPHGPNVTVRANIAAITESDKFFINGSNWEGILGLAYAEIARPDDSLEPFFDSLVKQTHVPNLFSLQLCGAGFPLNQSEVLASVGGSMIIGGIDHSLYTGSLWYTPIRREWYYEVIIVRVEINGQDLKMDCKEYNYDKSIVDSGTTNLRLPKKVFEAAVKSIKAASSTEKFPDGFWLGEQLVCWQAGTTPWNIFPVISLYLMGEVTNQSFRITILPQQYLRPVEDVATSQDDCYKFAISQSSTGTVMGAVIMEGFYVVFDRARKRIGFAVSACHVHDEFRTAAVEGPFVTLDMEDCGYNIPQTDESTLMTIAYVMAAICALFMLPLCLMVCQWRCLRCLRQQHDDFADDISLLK
Sequence of Mouse P-gp (P21447 whole entry): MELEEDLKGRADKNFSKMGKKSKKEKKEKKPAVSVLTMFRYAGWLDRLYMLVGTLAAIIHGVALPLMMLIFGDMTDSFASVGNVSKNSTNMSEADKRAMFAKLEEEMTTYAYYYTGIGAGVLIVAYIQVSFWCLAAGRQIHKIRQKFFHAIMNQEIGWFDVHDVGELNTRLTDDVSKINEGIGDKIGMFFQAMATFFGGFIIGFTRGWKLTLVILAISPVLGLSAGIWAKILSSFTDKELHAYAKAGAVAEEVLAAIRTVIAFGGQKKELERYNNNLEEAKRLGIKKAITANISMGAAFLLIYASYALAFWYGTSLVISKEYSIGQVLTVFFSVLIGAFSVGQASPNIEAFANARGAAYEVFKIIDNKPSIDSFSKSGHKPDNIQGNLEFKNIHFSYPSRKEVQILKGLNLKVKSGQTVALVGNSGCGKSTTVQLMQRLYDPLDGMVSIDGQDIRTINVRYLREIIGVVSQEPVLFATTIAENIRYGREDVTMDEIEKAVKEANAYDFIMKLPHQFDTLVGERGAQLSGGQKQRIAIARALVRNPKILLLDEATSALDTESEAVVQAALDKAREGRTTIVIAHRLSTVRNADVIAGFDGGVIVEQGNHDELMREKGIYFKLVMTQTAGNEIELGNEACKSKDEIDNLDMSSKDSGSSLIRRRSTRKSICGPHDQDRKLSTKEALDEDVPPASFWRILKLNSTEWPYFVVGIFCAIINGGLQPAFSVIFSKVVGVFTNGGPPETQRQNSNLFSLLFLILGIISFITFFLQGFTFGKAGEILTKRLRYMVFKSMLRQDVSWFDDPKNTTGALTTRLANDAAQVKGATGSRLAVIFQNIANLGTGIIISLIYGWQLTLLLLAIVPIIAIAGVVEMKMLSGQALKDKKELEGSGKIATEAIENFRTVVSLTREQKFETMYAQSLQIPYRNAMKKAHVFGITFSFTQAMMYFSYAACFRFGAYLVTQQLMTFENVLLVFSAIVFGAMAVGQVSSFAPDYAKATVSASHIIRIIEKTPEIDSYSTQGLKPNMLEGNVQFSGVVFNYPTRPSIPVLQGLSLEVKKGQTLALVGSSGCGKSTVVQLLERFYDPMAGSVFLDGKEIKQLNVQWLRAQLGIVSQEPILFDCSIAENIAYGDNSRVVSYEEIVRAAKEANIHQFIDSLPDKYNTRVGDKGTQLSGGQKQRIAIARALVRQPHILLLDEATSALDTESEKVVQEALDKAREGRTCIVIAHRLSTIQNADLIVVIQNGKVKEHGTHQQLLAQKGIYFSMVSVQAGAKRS

Regarding `Cc1cc(C#N)cnc1C(=O)Nc1ccc(F)c([C@@]2(C)N=C(N)O[C@H](C(F)(F)F)[C@@H]2F)n1` [Example 1, N-(6-((4R,5R,6S)-2-amino-5-fluoro-4-methyl-6-(trifluoromethyl)-5,6-dihydro-4H-1,3-oxazin-4-yl)-5-fluoropyridin-2-yl)-5-cyano-3-methylpicolinamide], the “Mouse P-gp ER” value in series [1] was determined as 3.5. Further, the “Brain Aβ-lowering 3 mg/kg” value in series [2] (single p.o. dose 3 mg/kg) is recorded as 58%. Also, in series [2] (single p.o. dose 10 mg/kg), the “Brain Aβ-lowering 10 mg/kg” value came to 92%. For the same molecule, the “CSF Aβ-lowering 1 mg/kg at 4 h” value in series [3] and in series [3] (listed as example 1) was 80% in each case. In series [4], this molecule came in with an IC50 of 0.036 µM. This molecule also yielded a Kd in series [5] (18° C., pH 4.5) of 0.002 µM. In series [5] (t1/2=0.693/koff), this molecule showed a residence time of 16 min. Moreover, the “AUC(0-24)/D p.o.” value in series [6] (p.o., dose normalized) was found to be 4160 kg·ng·h/mL/mg. Besides, the clearance in series [6] (plasma) turned out to be 0.126 L/h/kg. The bioavailability in series [6] (plasma, po, read-out: Oral Bioavailability F) stood at 52%. The half-life in series [6] (plasma, po, read-out: t1/2 p.o. (converted)) was 19 h.

The IC50 is the concentration at which inhibition is half-maximal. By Kd is commonly meant the free concentration of one partner at which half of the binding sites on the other are occupied at equilibrium, for simple one-to-one binding. What is called residence time is the mean lifetime of the complex, commonly the reciprocal of the off-rate. A word on the clearance: it is a measure of how efficiently the substance is removed, as volume per time. A word on the bioavailability: it is dose-corrected exposure relative to a reference, in per cent.
